Reference: patent publication US12378224B2 (Dong-A Socio Holdings Co., Ltd., priority 2016, dated 2025)

The compounds below were run against human c-MER catalytic domain (Homo sapiens (Human), UniProt Q12866) (assay: TR-FRET Kinase Activity Biochemical Assay (LanthaScreen)). Settings: 10 uM ATP, 1 hour, kinase not given.
From the text: For the SAR (structure-activity relationship) and compound screening, LanthaScreen™ TR-FRET (Time-Resolved fluorescence energy transfer) assay was employed using the phospho-tyrosine specific Terbium (Tb)-labelded antibody with a fluorescein labeled poly-GT (glutamate-tyrosine) as a substrate. Upon excitation at 340 nm by UV, the energy from Tb donor of the antibody is transferred to the fluorescein of the phosphorylated poly GT substrate, and fluorescein emits light at 520 nm. The ratio between the intensity of […] was used to quantify the level of kinase activity. The recombinant proteins of human c-MER and AXL catalytic domains, Fluorescein-labeled poly-GT substrate, Tb-labeled anti-phosphorylated tyrosine antibodies, the kinase assay buffer, and 0.5M EDTA solution were purchased (Life technologies, USA). The TR-FRET assays were carried out in the white low volume 384-well plate (Corning, USA). […] 10 mM EDTA was added to terminate the enzyme reaction, and the level of phosphorylation of poly-GT substrate was determined following 30 min incubation with 2 nM Tb-labeled antibody. The fluorescence intensity was measured with Envision™ plate reader (PerkinElmer, USA).

Chain of human c-MER catalytic domain (Q12866 587-858): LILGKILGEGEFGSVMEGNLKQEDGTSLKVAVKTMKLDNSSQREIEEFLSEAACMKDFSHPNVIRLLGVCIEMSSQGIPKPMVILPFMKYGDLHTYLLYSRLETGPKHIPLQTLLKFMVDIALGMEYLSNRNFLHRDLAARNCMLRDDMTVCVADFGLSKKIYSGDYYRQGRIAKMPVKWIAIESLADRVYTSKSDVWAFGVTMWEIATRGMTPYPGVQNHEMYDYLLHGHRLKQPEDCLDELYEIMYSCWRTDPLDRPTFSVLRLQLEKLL

Compound	IC50 [nM]
Cn1cc(-c2cnc3[nH]nc(N[C@@H]4CCN(C(=O)c5ccc(-c6ccccc6Cl)cc5)C4)c3c2)cn1 [Example 617, (R)-(2′-chloro-[1,1′-biphenyl]-4-yl)(3-((5-(1-methyl-1H-pyrazol-4-yl)-1H-pyrazolo[3,4-b]pyridin-3-yl)amino)pyrrolidin-1-yl)methanone]	10 to 100
Cn1cc(-c2cnc3[nH]nc(N[C@@H]4CCN(C(=O)c5ccc(-c6ccc7c(c6)CCCN7)cc5)C4)c3c2)cn1 [Example 790, (R)-(3-((5-(1-methyl-1H-pyrazol-4-yl)-1H-pyrazolo[3,4-b]pyridin-3-yl)amino)pyrrolidin-1-yl)(4-(1,2,3,4-tetrahydroquinolin-6-yl)phenyl)methanone]	10 to 100
Cn1cc(-c2cnc(N)c(C(=O)N[C@@H]3CCN(C(=O)Oc4ccccc4N)C3)c2)cn1 [Example 70, 2-aminophenyl (R)-3-(2-amino-5-(1-methyl-1H-pyrazol-4-yl)nicotinamido)pyrrolidine-1-carboxylate]	> 1000
Cn1cc(-c2cnc(N)c(C(=O)N[C@@H]3CCN(C(=O)Oc4cccc(-c5ccc(CN6CCCCC6)cc5)c4)C3)c2)cn1 [Example 334, 4′-(piperidin-1-ylmethyl)-[1,1′-biphenyl]-3-yl (R)-3-(2-amino-5-(1-methyl-1H-pyrazol-4-yl)nicotinamido)pyrrolidine-1-carboxylate]	100 to 1000
Cn1cc(-c2cnc(N)c(C(=O)N[C@@H]3CCN(C(=O)c4ccc(-c5ccc(C(F)(F)F)cc5C(F)(F)F)cc4)C3)c2)cn1 [Example 374, (R)-2-amino-N-(1-(2′,4′-bis(trifluoromethyl)-[1,1′-biphenyl]-4-carbonyl)pyrrolidin-3-yl)-5-(1-methyl-1H-pyrazol-4-yl)nicotinamide]	> 1000
CC(/C=C/c1ccc(C(=O)N2CC[C@@H](NC(=O)c3cc(-c4cnn(C)c4)cnc3N)C2)cc1)N1CCN(C)CC1 (stereo partly drawn) [Example 822, 2-amino-5-(1-methyl-1H-pyrazol-4-yl)-N-((3R)-1-(4-((E)-3-(4-methylpiperazin-1-yl)but-1-en-1-yl)benzoyl)pyrrolidin-3-yl)nicotinamide]	< 10

Now from value to compound:

IC50 [nM]	Compound
10 to 100	Cn1cc(-c2cnc(N)c(C(=O)N[C@@H]3CCN(C(=O)Nc4ccc(-c5cccc(CN)c5)cc4)C3)c2)cn1 [Example 269, (R)-2-amino-N-(1-((3′-(aminomethyl)-[1,1′-biphenyl]-4-yl)carbamoyl)pyrrolidin-3-yl)-5-(1-methyl-1H-pyrazol-4-yl)nicotinamide]
100 to 1000	COc1cccc(CN2CC[C@@H](NC(=O)c3cc(-c4cnn(C)c4)cnc3N)C2)c1OC [Example 217, (R)-2-amino-N-(1-(2,3-dimethoxybenzyl)pyrrolidin-3-yl)-5-(1-methyl-1H-pyrazol-4-yl)nicotinamide]
100 to 1000	CSc1ccc(-c2ccc(C(=O)N3CC[C@@H](NC(=O)c4cc(-c5cnn(C)c5)cnc4N)C3)cc2)cc1 [Example 665, (R)-2-amino-5-(1-methyl-1H-pyrazol-4-yl)-N-(1-(4′-(methylthio)-[1,1′-biphenyl]-4-carbonyl)pyrrolidin-3-yl)nicotinamide]
10 to 100	Cn1cc(-c2cnc(N)c(C(=O)N[C@@H]3CCN(C(=O)c4ccc(-c5ccc(Oc6ccc(N)cc6)cc5F)cc4)C3)c2)cn1 [Example 533, (R)-2-amino-N-(1-(4′-(4-aminophenoxy)-2′-fluoro-[1,1′-biphenyl]-4-carbonyl)pyrrolidin-3-yl)-5-(1-methyl-1H-pyrazol-4-yl)nicotinamide]
100 to 1000	Cn1cc(-c2cnc(N)c(C(=O)N[C@@H]3CCN(CCc4cccc(Br)c4)C3)c2)cn1 [Example 234, (R)-2-amino-N-(1-(3-bromophenethyl)pyrrolidin-3-yl)-5-(1-methyl-1H-pyrazol-4-yl)nicotinamide]
100 to 1000	COc1cc(NC(=O)N2CC[C@@H](NC(=O)c3cc(-c4cnn(C)c4)cnc3N)C2)cc(OC)c1OC [Example 35, (R)-2-amino-5-(1-methyl-1H-pyrazol-4-yl)-N-(1-((3,4,5-trimethoxyphenyl)carbamoyl)pyrrolidin-3-yl)nicotinamide]
